Data on 21 molecules can be found in patent US10688080B2, “Compositions, methods of use, and methods of treatment” (priority 2016, dated 2020).

The target of one experiment is T1, KPC-2 (Klebsiella pneumoniae, UniProt Q9F663).
T1 construct: made in house; host or cells: bacteria, IPTG-induced
Kind of experiment: Steady-state kinetic nitrocefin hydrolysis inhibition, KPC-2. The class given is biochemical. Here is the method: For His tag KPC-2 beta-lactamase, bacteria were grown overnight at 30 C with shaking in 50 mL LB broth supplemented with 50 μg/mL kanamycin. Two liters of LB broth supplemented with 50 μg/mL kanamycin, 200 mM sorbitol, and 5 mM betaine were each inoculated with 10 mL of overnight bacterial culture. Cultures were then grown at 37 C until an optical density at 600 nm (OD600) of 0.6-0.7. Protein expression was then initiated by the addition of IPTG (final concentration 0.5 mM), followed by growth for 16 hr at 20 C. Cells were pelleted by centrifugation and stored at −80 C until further use. The his tag KPC-2 beta-lactamase was purified by nickel affinity chromatography and gel filtration. Briefly, the cell pellets were thawed and re-suspended in 40 mL of buffer A (20 mM Tris-HCl pH 8.0, 300 mM NaCl, 20 mM imidazole) with one complete protease inhibitor cocktail tablet (Roche) and disrupted by sonication, followed by ultracentrifugation to clarify the lysate. After ultracentrifugation, the supernatant was passed through a 0.22 μm filter before loading onto a 5 mL HisTrap HP affinity column (GE Healthcare Life Sciences, USA) pre-equilibrated with buffer A. His tag KPC-2 was eluted by a linear imidazole gradient (20 mM to 500 mM). Fractions were analyzed by SDS-PAGE. Fractions containing his tag KPC-2 were concentrated using a 10 k NMWL Amicon Ultra-15 Centrifugal Filter Unit. Concentrated his tag KPC-2 was then loaded onto a superdex 75 gel filtration column (GE Healthcare Life Sciences) pre-equilibrated with 20 mM Tris-HCl pH 8.0, 300 mM NaCl. Protein concentration was determined by absorbance at 280 using an extinction coefficient of 39,545.
(§1) Steady-state kinetic parameters were determined by using a Biotek Cytation 5 Cell Imaging Multi-Mode Reader. For KPC-2 and CTX M-14, each assay was performed in 100 mM Tris-HCl pH 7.0, 0.01% Triton X-100 at 37 C. Vmax and Km were determined from initial steady-state velocities from nitrocefin read at a wavelength of 486 nm. The kinetic parameters were obtained using the non-linear portion of the data to the Henri-Michaelis (equation 1) using Gera version 2.07. V=Vmax[S]/(Km+[S]) (Equation 1)
(§2) IC50, defined as the inhibitor concentration that results in a 50% reduction of nitrocefin (20 μM for KPC-2 and 50 μM for CTX M-14) hydrolysis was determined by measurements of initial velocities after mixing 1 nM of KPC-2 or CTX M-14 with increasing concentrations of inhibitors. The inhibition constant (Ki) was calculated according to equation 2: Ki=IC50/([S]/Km+1) (Equation 2)

A further experiment has as its target T2, NDM-1 (Klebsiella pneumoniae, UniProt C7C422).
T2 construct: SUMO tag (cleaved yes); made in house; host or cells: bacteria, IPTG-induced
Put plainly: Steady-state kinetic nitrocefin hydrolysis inhibition, NDM-1. The class given is biochemical. Particulars: for pKi: nitrocefin 10 μM, 1 μM ZnSO4, Ki=IC50/([S]/Km+1). Here is the method:
For sumo tag NDM-1 metallo-beta-lactamase, bacteria were grown overnight at 30 C with shaking in 50 mL LB broth supplemented with 100 μg/mL ampicillin. Two liters of LB broth supplemented with 100 μg/mL ampicillin were each inoculated with 10 mL of overnight bacterial culture. Cultures were then grown at 37 C until an optical density at 600 nm (OD600) of 0.6-0.7. Protein expression was then initiated by the addition of IPTG (final concentration 0.5 mM), followed by growth for 16 hr at 20 C. Cells were pelleted by centrifugation and stored at −80 C until further use. The sumo tag NDM-1 beta-lactamase was purified by nickel affinity chromatography and gel filtration. Briefly, the cell pellets were thawed and re-suspended in 40 mL of buffer A (20 mM HEPES pH 7.4, 0.5 M NaCl, 20 mM imidazole) with one complete protease inhibitor cocktail tablet (Roche) and disrupted by sonication, followed by ultracentrifugation to clarify the lysate. After ultracentrifugation, the supernatant was passed through a 0.22 μm filter before loading onto a 5 mL HisTrap HP affinity column (GE Healthcare Life Sciences, USA) pre-equilibrated with buffer A. Sumo tag NDM-1 was eluted by a linear imidazole gradient (20 mM to 500 mM). Fractions were analyzed by SDS-PAGE. Fractions containing sumo tag NDM-1 were buffer exchanged into 20 mM HEPES pH 7.0, 100 mM NaCl. Cleavage of the sumo tag was then carried out with ULP1 protease overnight at room temperature and then concentrated using a 10 k NMWL Amicon Ultra-15 Centrifugal Filter Unit. The sample was then loaded back onto a nickel affinity column and the flow through was collected, containing the untagged NDM-1. NDM-1 was concentrated and loaded onto a gel filtration column (GE Healthcare Life Sciences) pre-equilibrated with 20 mM HEPES pH 7.0, 100 mM NaCl. Protein concentration was determined by absorbance at 280 using an extinction coefficient of 27,960.
as §1, §2
For NDM-1, the procedures were the same as above except the assay was performed in 100 mM Tris-HCl pH 7.0, 1 μM ZnSO4, 0.01% Triton X-100. In addition, a nitrocefin concentration of 10 μM was used.

The next experiment concerns the target OXA-48 (Klebsiella pneumoniae, UniProt Q6XEC0). Put plainly: Steady-state kinetic β-lactamase inhibition, OXA-48. The class given is biochemical. Particulars: read-out: OXA-48 % inhibition at stated concentration.
The target of a further experiment is CTX-M14 (Escherichia coli, UniProt Q9L5C7). Kind of experiment: Steady-state kinetic nitrocefin hydrolysis inhibition, CTX-M14. The class given is biochemical. The settings on record: for pKi: nitrocefin 50 μM, 1 nM enzyme, Ki=IC50/([S]/Km+1). Here is the method:
as §1, §2

A further experiment concerns the target SHV-2 (Klebsiella pneumoniae, UniProt P0A9Z8). Put plainly: Steady-state kinetic β-lactamase inhibition, SHV-2. The class given is biochemical.
For experiment [1], the system named is BL21(DE3) E. coli expressing KPC-2. Put plainly: MIC studies, synergy with imipenem (broth microdilution). The experiment is classed as cell-based. The settings on record: Escherichia coli, 24 h, read-out: MIC of imipenem. Here is the method:
Compounds were tested for synergy with the carbapenem antibiotic, imipenem, against BL21(DE3) E. coli expressing KPC-2. MIC values were determined with the Mueller-Hinton broth microdilution method. To test for inhibitory activity, compounds were dissolved in DMSO and dilutions were carried out using LB broth. Compounds were test at 100 μM with increasing concentrations of imipenem. […] After inoculation, the plates are incubated at 37 C for 24 hours. The MIC of the compounds are then determined visually.

Molecules are shown by their SMILES. pKi: −log10 of the molar value.

OXA-48, sequence (Q6XEC0 23-265 limits assumed): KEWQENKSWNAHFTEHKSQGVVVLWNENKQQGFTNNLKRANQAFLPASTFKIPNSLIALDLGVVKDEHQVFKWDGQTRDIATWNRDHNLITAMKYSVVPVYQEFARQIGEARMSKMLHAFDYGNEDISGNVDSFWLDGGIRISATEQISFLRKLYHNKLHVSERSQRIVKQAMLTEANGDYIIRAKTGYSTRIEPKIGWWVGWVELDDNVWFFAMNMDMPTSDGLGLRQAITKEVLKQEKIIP
T1 sequence (Q9F663 25-293 limits assumed): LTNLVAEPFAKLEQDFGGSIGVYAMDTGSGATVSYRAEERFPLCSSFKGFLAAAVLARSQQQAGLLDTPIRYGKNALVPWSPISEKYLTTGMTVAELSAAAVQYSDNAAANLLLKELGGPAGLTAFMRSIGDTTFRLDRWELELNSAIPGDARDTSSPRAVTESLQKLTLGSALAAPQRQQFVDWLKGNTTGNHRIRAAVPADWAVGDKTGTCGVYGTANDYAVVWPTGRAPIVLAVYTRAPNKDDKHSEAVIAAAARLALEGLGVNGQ
T2 sequence (C7C422 29-270, looked up, species assumed): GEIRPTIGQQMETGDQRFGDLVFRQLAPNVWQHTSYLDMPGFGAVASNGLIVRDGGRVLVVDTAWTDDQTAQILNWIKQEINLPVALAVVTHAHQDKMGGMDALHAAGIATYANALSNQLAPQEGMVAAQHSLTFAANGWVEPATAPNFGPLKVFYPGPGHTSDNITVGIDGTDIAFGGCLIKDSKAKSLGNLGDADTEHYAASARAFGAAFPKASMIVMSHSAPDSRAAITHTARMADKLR
CTX-M14, sequence (Q9L5C7 29-291, species assumed): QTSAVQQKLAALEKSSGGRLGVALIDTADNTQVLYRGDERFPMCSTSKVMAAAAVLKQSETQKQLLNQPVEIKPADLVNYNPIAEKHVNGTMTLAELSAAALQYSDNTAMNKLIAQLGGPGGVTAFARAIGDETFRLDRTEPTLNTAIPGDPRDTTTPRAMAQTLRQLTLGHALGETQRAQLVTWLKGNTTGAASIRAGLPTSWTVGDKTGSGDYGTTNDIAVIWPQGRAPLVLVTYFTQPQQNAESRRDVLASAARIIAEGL
SHV-2, sequence (P0A9Z8 22-286): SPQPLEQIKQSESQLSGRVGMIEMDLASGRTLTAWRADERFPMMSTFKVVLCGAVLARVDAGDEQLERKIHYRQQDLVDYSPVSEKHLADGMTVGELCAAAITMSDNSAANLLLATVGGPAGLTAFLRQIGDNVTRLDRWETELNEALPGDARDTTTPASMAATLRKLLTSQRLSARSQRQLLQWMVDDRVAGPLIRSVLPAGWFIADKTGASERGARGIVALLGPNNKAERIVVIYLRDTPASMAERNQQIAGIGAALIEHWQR

`O=C(Nc1nnn[nH]1)C1CN(C(=O)c2cccc(C(F)(F)F)c2)c2ccccc21` (centres unmarked) [Compound 2, N-(1H-tetrazol-5-yl)-1-(3-(trifluoromethyl)benzoyl)indoline-3-carboxamide]: the pKi on KPC-2 is 5.92; on NDM-1 it was 3.02.
As for `O=C(Nc1nc(C(=O)Nc2nnn[nH]2)c(-c2ccccc2)s1)c1nccs1` [Compound 6, N-(4-((1H-tetrazol-5-yl)carbamoyl)-5-phenylthiazol-2-yl)thiazole-2-carboxamide], the pKi on KPC-2 is 4.59. Also, the inhibition at 4800 µM at OXA-48 amounted to 50%.
Turning to `O=C(Nc1nnn[nH]1)[C@@H]1CCCN(S(=O)(=O)c2cccc(C(F)(F)F)c2)C1` [Compound 9, (R)—N-(1H-tetrazol-5-yl)-1-((3-(trifluoromethyl)phenyl)sulfonyl)piperidine-3-carboxamide], the pKi on CTX-M14 is 3.61; at KPC-2 it was 4.11. The inhibition at 4800 µM on OXA-48 turned out to be 20%.
For the molecule `O=C(N[C@H]1CCCCN(c2nnn[nH]2)C1=O)c1cc(C(F)(F)F)cc2nc[nH]c12.O=CO` [Compound 21, (S)—N-(2-oxo-1-(1H-tetrazol-5-yl)azepan-3-yl)-5-(trifluoromethyl)-1H-benzo[d]imidazole-7-carboxamide formate], the pKi was 3.63 at CTX-M14 and 4.22 at SHV-2. Moreover, the “KPC-2 % inhibition at stated concentration” value (“KPC-2 % inhibition” below) on KPC-2 (at 1600 (uM)) was 30% at 1600.
Consider `O=C(Nc1nnn[nH]1)C(Sc1ccccc1)c1ccccc1` (centres unmarked) [Compound 22, 2-phenyl-2-(phenylthio)-N-(1H-tetrazol-5-yl)acetamide], for which the pKi on KPC-2 was 4.58; at NDM-1, 4.24.
On to `O=C(Nc1nnn[nH]1)C(Nc1ccccc1)c1ccccc1` (centres unmarked) [Compound 25, 2-phenyl-2-(phenylamino)-N-(1H-tetrazol-5-yl)acetamide], for which the pKi was 3.28 on KPC-2 and 3.19 on NDM-1. Besides, the inhibition at 5000 µM at OXA-48 is 40%.
As to `O=C(Nc1nnn[nH]1)c1cn(S(=O)(=O)c2cccc(C(F)(F)F)c2)c2ccccc12` [Compound 27], the pKi at KPC-2 is 3.52.
With `CC(c1cccc(C(F)(F)F)c1)n1cc(C(=O)Nc2nnn[nH]2)c2ccccc21` (centres unmarked) [Compound 29], the “CTX-M14 % inhibition at stated concentration” value at CTX-M14 (at 1900 (uM)) is reported as 50% at 1900. Moreover, the “KPC-2 % inhibition” value on KPC-2 (at 1900 (uM)) stood at 50% at 1900.
In the case of `O=C(Nc1nnn[nH]1)c1c[nH]c2ccccc12` [Compound 30], the pKi on KPC-2 is 2.52; at NDM-1, 3.45.
As for `CC1(C(=O)Nc2nnn[nH]2)CN(C(=O)c2cccc(C(F)(F)F)c2)c2ccccc21` (centres unmarked) [Compound 31], the pKi at KPC-2 is 3.45; at NDM-1, 3.70.
On to `CC(=O)N1CC(C)(C(=O)Nc2nnn[nH]2)c2ccccc21` (centres unmarked) [Compound 32], for which the “CTX-M14 % inhibition at stated concentration” value on CTX-M14 (at 4800 (uM)) worked out at 10% at 4800. Also, the “KPC-2 % inhibition” value on KPC-2 (at 4800 (uM)) amounted to 40% at 4800. Moreover, the negative-log Ki (pKi) on NDM-1 was 3.81. In addition, the inhibition at 3900 µM at OXA-48 is 16%.
For `CC1(C(=O)Nc2nnn[nH]2)CN(S(C)(=O)=O)c2ccccc21` (centres unmarked) [Compound 33], the negative-log Ki (pKi) was 2.57 on KPC-2 and 3.79 on NDM-1. The inhibition at 3900 µM at OXA-48 was determined as 20%.
At KPC-2, `O=C(Nc1nc(C(=O)Nc2nnn[nH]2)c(-c2ccccc2)s1)c1ncc[nH]1.O=CO` [Compound 34] gave a negative-log Ki (pKi) of 3.95. Besides, the “NDM-1 % inhibition at stated concentration” value (from here on “NDM-1 % inhibition”) on NDM-1 (at 1000 (uM)) was found to be 20% at 1000. Besides, the inhibition at 1600 µM on OXA-48 came to 35%.
As for `O=C(Nc1nc(C(=O)Nc2nnn[nH]2)c(-c2ccccc2)s1)c1ncco1` [Compound 35], on OXA-48, the inhibition at 800 µM amounted to 20%.
With `O=C(Nc1nnn[nH]1)[C@@H]1CCN(C(=O)c2cccc(C(F)(F)F)c2)C1` [Compound 36], the pKi at CTX-M14 is 2.53; at KPC-2, 2.70; on NDM-1, 4.32.
For `O=C(Nc1nnn[nH]1)[C@@H]1CCN(S(=O)(=O)c2cccc(C(F)(F)F)c2)C1` [Compound 37], the pKi is 3.00 at CTX-M14 and 3.33 at KPC-2. The “NDM-1 % inhibition” value on NDM-1 (at 1800 (uM)) is reported as 30% at 1800.
For the molecule `O=C(Nc1nnn[nH]1)[C@H]1CCN(C(=O)c2cccc(C(F)(F)F)c2)C1` [Compound 38], the negative-log Ki (pKi) is 2.52 on CTX-M14 and 2.70 on KPC-2. Further, on NDM-1 (at 3500 (uM)), the “NDM-1 % inhibition” value is 40% at 3500.
Regarding `O=C(Nc1nnn[nH]1)[C@H]1CCN(S(=O)(=O)c2cccc(C(F)(F)F)c2)C1` [Compound 39], the negative-log Ki (pKi) is 2.70 at CTX-M14 and 2.82 on KPC-2. The “NDM-1 % inhibition” value on NDM-1 (at 1800 (uM)) turned out to be 10% at 1800.
With `O=C(Nc1nnn[nH]1)[C@@H]1CCCN(C(=O)c2cccc(C(F)(F)F)c2)C1` [Compound 40], on KPC-2, the negative-log Ki (pKi) is 3.96. The “NDM-1 % inhibition” value at NDM-1 (at 1000 (uM)) is reported as 20% at 1000. The inhibition at 4800 µM on OXA-48 came out at 35%.
Molecule `O=C(CNc1ccccc1)Nc1nnn[nH]1` [Compound 42] showed a pKi on KPC-2 of 2.92.
Consider `C[C@@H](O)[C@H]1C(=O)N2C(C(=O)O)=C(SCCN=CN)C[C@H]12` [Imipenem, imipenem], for which the MIC in experiment [1] was 2 µg/mL.

One may read the pKi as the Ki on a negative log10 scale, so that one unit is a factor of ten. Lower therefore signals a large Ki. What is called MIC is the lowest concentration found to suppress growth.
